For five compounds, IC50 results are on record in US4375475A, “Substituted pyranone inhibitors of cholesterol synthesis” (Merck & Co., Inc., priority 1981, dated 1983).

In test [1] the target is T1, 3-hydroxy-3-methylglutaryl-coenzyme A reductase (Rattus norvegicus, UniProt P51639).
T1 construct: from tissue
T1 sequence (P51639 1-887): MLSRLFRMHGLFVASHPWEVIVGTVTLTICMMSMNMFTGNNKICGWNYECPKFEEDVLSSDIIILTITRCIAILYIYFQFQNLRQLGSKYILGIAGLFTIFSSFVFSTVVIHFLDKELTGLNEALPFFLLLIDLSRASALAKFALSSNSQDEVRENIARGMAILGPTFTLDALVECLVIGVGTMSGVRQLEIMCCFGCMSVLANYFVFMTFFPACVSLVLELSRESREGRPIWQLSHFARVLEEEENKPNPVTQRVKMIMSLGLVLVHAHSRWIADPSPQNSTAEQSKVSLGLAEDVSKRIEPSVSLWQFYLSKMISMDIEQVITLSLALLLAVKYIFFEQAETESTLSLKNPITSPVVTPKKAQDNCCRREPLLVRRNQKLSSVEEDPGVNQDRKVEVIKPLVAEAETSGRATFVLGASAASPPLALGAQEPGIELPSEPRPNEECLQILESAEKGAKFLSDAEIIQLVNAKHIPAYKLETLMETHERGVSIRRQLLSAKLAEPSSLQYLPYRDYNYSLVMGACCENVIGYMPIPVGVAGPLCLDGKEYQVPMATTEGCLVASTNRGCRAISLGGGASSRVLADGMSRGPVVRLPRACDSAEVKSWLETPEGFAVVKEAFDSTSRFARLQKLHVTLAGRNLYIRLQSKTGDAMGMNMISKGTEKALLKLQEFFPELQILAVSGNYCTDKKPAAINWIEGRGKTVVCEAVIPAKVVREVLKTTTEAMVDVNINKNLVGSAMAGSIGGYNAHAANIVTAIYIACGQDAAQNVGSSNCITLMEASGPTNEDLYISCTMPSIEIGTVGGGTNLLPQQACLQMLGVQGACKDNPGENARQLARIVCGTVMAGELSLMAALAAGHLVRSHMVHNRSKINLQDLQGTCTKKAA
Briefly: method A: in vitro method of H. J. Knauss et al., inhibition of 50% of the enzymatic activity. The test is classed as biochemical. The note with it: compounds tested as the sodium salts of their corresponding hydroxy acid forms. The text has this: The inhibitory activity of these compounds for the biosynthesis of cholesterol has been measured by two methods. The experimental method A was the in vitro method of H. J. Knauss, et al., J. Biol. Chem., 234, 2835 (1959) and the activity was expressed as the molar concentration IC50 (M) necessary for the inhibition of 50% of the enzymatic activity. The experimental method B was the method of A. A. Kandutsch, et al., J. Biol. Chem., 248, 8403 (1973) for measuring the quantity of ^14 C-cholesterol biosynthesis from acetic acid-^14 C in mouse L cells. The activity is expressed for inhibition of 50% of the biosynthesis of cholesterol.

The subject of test [2] is mouse L cells. The note with it: method B, values of Belgian Pat. No. 867,421, read-out: IC50 (inhibition of 50% of the biosynthesis of cholesterol) as reported in the cited Belgian patent; cited from earlier work.
Test [3] addresses T1, 3-hydroxy-3-methylglutaryl-coenzyme A reductase. The note with it: method A; values of Belgian Pat. No. 867,421; read-out: IC50 as reported in the cited Belgian patent; cited from earlier work.

pIC50: −log10 of the molar value. Structures can show the parent of a compound that is named as a salt. Where two headings read alike, the source gives them in different places.

Usually pIC50 stands for the negative decadic logarithm of the IC50, by convention in mol/L. Regarding `O=C(O)C[C@H](O)C[C@H](O)/C=C/c1c(Cl)cc(Cl)cc1-c1ccc(F)cc1` (relative stereo) [Example 43, (+)-(E)-(3R*,5S*)-7-(3,5-dichloro-4'-fluoro[1,1'-biphenyl]-2-yl)-3,5-dihydroxy-6-heptenoic acid, ammonium salt], in test [1], the negative-log IC50 (pIC50) was approximately 7.89.
For the compound `Cc1cc(C)cc(-c2cc(C)cc(C)c2C=CC2CC(O)CC(=O)O2)c1` (stereo not drawn) [6-[2-(3,3',5,5'-tetramethyl-[1,1'-biphenyl]-2-yl)ethenyl]-3,4,5,6-tetrahydro-4-hydroxy-2H-pyran-2-one], the negative-log IC50 (pIC50) in test [1] was 7.82.
Same read-out and setting: in the case of `Cc1cc(C)c(C=CC2CC(O)CC(=O)O2)c(-c2ccc(F)c(C)c2)c1` (stereo not drawn) [6-[2-(4'-fluoro-3,3',5-trimethyl[1,1'-biphenyl]-2-yl)ethenyl]-3,4,5,6-tetrahydro-4-hydroxy-2H-pyran-2-one] it was 8.15; in that of `O=C1C[C@@H](O)C[C@H](CCc2c(Cl)cc(Cl)cc2OCc2ccccc2)O1` [Example 14, (+)-Trans-6-[2-(2,4-dichloro-6-phenylmethoxyphenyl)ethyl]-3,4,5,6-tetrahydro-4-hydroxy-2H-pyran-2-one], 7.17.
With `CC[C@H](C)C(=O)O[C@H]1CCC=C2C=C[C@H](C)[C@H](CC[C@@H]3C[C@@H](O)CC(=O)O3)[C@H]21` [compactin], the negative-log IC50 (pIC50) in test [2] and in test [3] was approximately 8.10 in each case.
